Measurements published in patent publication US20260286012A1, “ANTI-OUABAIN NANOBODY AND APPLICATION THEREOF” (priority 2023, published 2026).

Columns and labels:
Hela cells [1] = experiment: MTT determination of cell survival rate; format: cell-based; parameters: dose or concentration left out as unconfirmed; details: ouabain for 48 h and 24 h, respectively
Procedure: By methyl thiazolyl tetrazolium (MTT), the cell survival rate was measured. When the cell density in a 6-well plate reached 80%-90%, the cells were digested, and centrifuged at 1000 rpm for 5 min; a cell precipitate was left, added with 1 mL of culture solution and then resuspended; and the cells were counted with a cell counting plate. 100 µL of cell suspension was added to a 96 ELISA plate at 1×10^4 cells/well, and sterile PBS was added around cell wells. The cells were cultured on a 96-well plate for 12 to 24 h. When the cell growth density reached 60% to 80%, a drug could be added to treat the cells at this point. […] The absorbance of each well was detected with a microplate reader at 490 nm and the cell survival rate was calculated. […]
(§1) High-concentration ouabain can lead to apoptosis of cells. To study the pharmacological effect of ouabain Nb, this study treated Hela cells with ouabain and ouabain Nb, and detected the effects of ouabain and antibody protein on the cell survival rate by an MTT method. […] To further verify the biological activity of ouabain Nb, the Ca^2+ concentration in the HeLa cells was detected by neutralizing ouabain monomers with ouabain Nb. […] After incubation of ouabain Nb (5 μM) and ouabain, the cells were treated and the Ca^2+ concentration was detected.

Hela cells [2] = experiment: Flow cytometry assay for intracellular Ca2+ level; format: cell-based; details: 250 nM ouabain vs control group
Procedure: The cells were cultured in a 12-well cell culture dish. When the cell growth density reached 60% to 80%, a drug could be added to treat the cells. The medium was removed from the treated cells under dark conditions, and the cells were rinsed with pre-warmed HBSS for three times to eliminate esterases and other substances in the medium to reduce their degradation to an ion probe. 1-5 μM of Fluo4-AM working solution was added, such that the cells were completely covered with the working solution and incubated in a cell incubator for 40 min at a constant temperature. The Fluo4-AM working solution was discarded, and the cells were washed with HBSS for three times to thoroughly remove any remaining dye Subsequently. […]
as §1

C[C@@H]1O[C@@H](O[C@H]2C[C@@H](O)[C@]3(CO)[C@H]4[C@H](O)C[C@]5(C)[C@@H](C6=CC(=O)OC6)CC[C@]5(O)[C@@H]4CC[C@]3(O)C2)[C@H](O)[C@H](O)[C@H]1O [ouabain, Ouabain]
survival rate of the cells treated with ouabain (Hela cells [1]): reduced to half of the original
Ca2+ concentration in HeLa cells (Hela cells [2]): significantly higher than that in the control group
